# Source: patent US9918968B2, “Rapamycin analogs targeting proteasome function in the treatment of cancer” (THE BOARD OF REGENTS OF THE UNIVERSITY OF TEXAS SYSTEM, priority 2013, dated 2018)
# Key:
# [1] = tested on: RPMI 8226 myeloma cells; assay: Live/dead cell count, RPMI 8226 myeloma cells; assay type: cell-based, human; details: 48 hrs
# Protocol: (§1) Culture Collection; ATCC) were cultured according to ATCC specifications: HeLa.S3 cervical adenocarcinoma, MCF7 breast adenocarcinoma, MDA-MB-231 breast adenocarcinoma (representing triple negative breast cancer), and RPMI 8226 myeloma. The cells were grown in 24 or 12-well cell culture plates. When the cells reached about 60% confluency (surface-growing HeLa.S3,MCF7 and MDA-MB-231) or a density of about 7×10^5 (suspension-growing RPMI 8226), the inhibitors dissolved in DMSO or the solvent (DMSO) diluted in respective culture medium were added and the cells were further cultured for additional 48 hours. […] The final concentration of the solvent was 1% (vol/vol). The number of live and dead cells after the treatment was approximated with calcein AM and ethidium homodimer (LiveDead test, Invitrogen) according to manufacturer's protocol, or by a Trypan Blue exclusion assay. In short, the cells after the treatment were washed three times with PBS and overlaid (surface-growing) or mixed (suspension-growing) with 4 microM calcein AM and 2 microM ethidium homodimer in PBS. Fluorescence of calcein and DNA-bound ethidium homodimer was measured with Fluoroskan Ascent plate reader, at 485 nm (excitation)/538 nm (emission) and 530 nm/619 nm, respectively. The cell counts were approximated using standard curves of live and digitonin-killed cells prepared for each strain. Alternatively, after cell treatment the medium was removed, the surface growing cells were overlaid with Trypan Blue solution, and the colorless (live) and blue-colored (dead) cells were counted under the inverted microscope.
# [2] = tested on: MDA-MB-231 (triple-negative breast cancer) cells; assay: Viability/growth of MDA-MB-231 cells; assay type: cell-based, human
# Protocol: The cells were grown in 24 or 12-well cell culture plates. […] The final concentration of the solvent was 1% (vol/vol). The number of live and dead cells after the treatment was approximated with calcein AM and ethidium homodimer (LiveDead test, Invitrogen) according to manufacturer's protocol, or by a Trypan Blue exclusion assay. In short, the cells after the treatment were washed three times with PBS and overlaid (surface-growing) or mixed (suspension-growing) with 4 microM calcein AM and 2 microM ethidium homodimer in PBS. […] The cell counts were approximated using standard curves of live and digitonin-killed cells prepared for each strain. Alternatively, after cell treatment the medium was removed, the surface growing cells were overlaid with Trypan Blue solution, and the colorless (live) and blue-colored (dead) cells were counted under the inverted microscope.
# [3] = tested on: T1, human 20S proteasome, PGPH peptidase; assay: PGPH peptidase activity of purified human 20S proteasome (CbzLLE-MCA); assay type: biochemical
# T1 construct: purchased Enzo LifeSciences
# Protocol: (§2) Human purified proteasome complexes were purchased from Enzo LifeSciences or Boston Biochemicals (19S complex). BODIPY-casein (Invitrogen/Molecular Probes) was used as a model protein substrate, with increasing fluorescence of BODIPY labeled peptide products of degradation monitored for up to 8 hours at 37° C. The peptidase activity of the enzyme was measured as arbitrary intensity units of the released fluorescent group 7-amino-4-methylcoumarin (AMC) from peptide substrates, as described. The common substrates specific for the three kinds of active sites: succinyl-LeuLeuValTyr-7-amido-4-methylcoumarin (Suc-LLVY-MCA; for the ChT-L activity; Bachem), butoxycarbonyl-LeuArgArg-MCA (BocLRR-MCA; for T-L; Bachem) and carbobenzoxy-LeuLeuGlu-MCA (CbzLLE-MCA; for PGPH; Enzo Life Sciences International, Inc.) were used at 100 μM final concentrations, unless stated otherwise (Gaczynska and Osmulski, 2005). Proteasome substrates, rapamycin, its derivatives, and competing peptides were stocked in DMSO and diluted 100-fold in the reaction mixtures. The Rpt5 and PA200 C-terminal peptides were synthesized in the Departmental Peptide Synthesis Core using the standard SPPS chemistry. To activate the latent 20S proteasome, 0.005% (final concentration) of sodium dodecyl sulfate (SDS) was used. The reactions were carried out in 96 well plates, with 2.3 nM proteasome and other components as indicated dissolved in 50 mM Tris-HCl buffer (pH 8.0) and incubated at 37° C. for up to 1 hour. The fluorescence of products was monitored every 2 minutes with a Fluoroskan Ascent plate reader. Reaction rates were calculated from smoothed linear segment of kinetic curves using OriginPro 8.6 (OriginLabs, Northampton, Mass.). For the determination of an inhibition type, at least six distinct substrate concentrations and two inhibitor concentrations were used. The kinetic parameters of inhibition were analyzed in terms of the Michaelis-Menten formalism using the enzyme kinetic module of SigmaPlot v.12 (Systat Software, Inc, San Jose, Calif.) to perform the respective calculations.
# (§3) IC50 values (a drug concentration causing 50% inhibition of the indicated enzymatic activity) were calculated for ChT-L and PGPH peptidases. Kd (dissociation constant) and Bmax (maximal activation effect achieved; in % above the control activity) values were calculated for the T-L peptidase. Mean±SD from n=2 or 3 experiments, or data from representative experiments set in duplicates or triplicates, are presented in the table. All three peptidase activities changed by no more than ±20%, without a concentration-dependent trend, upon treatment with up to 10 μM of rapamycin unrelated mTOR inhibitors PI-103 or NVP-BEZ235, in two independent experiments.
# [4] = tested on: HeLa.S3 cervical carcinoma cells; assay: Live/dead cell count, HeLa.S3 cells; assay type: cell-based, human; details: up to 500 nM, 48 hrs
# Protocol: as §1
# [5] = tested on: T2, human 20S proteasome, T-L peptidase; assay: T-L peptidase activity of purified human 20S proteasome (BocLRR-MCA); assay type: biochemical
# T2 construct: purchased Enzo LifeSciences
# Protocol: as §2, §3
# [6] = target: mTOR (Homo sapiens, UniProt P42345+P62942); details: cited from earlier work
smiles,measurement,setting,value
CO[C@@H](C[C@@H]1CC[C@@H](C)[C@](O)(C(=O)C(=O)N2CCCC[C@H]2C(=O)[O-])O1)/C(C)=C/C=C/C=C/[C@@H](C)C[C@@H](C)C(=O)[C@H](OC)[C@H](O)/C(C)=C/[C@@H](C)C(=O)/C=C/[C@H](C)C[C@@H]1CC[C@@H](O)[C@H](OC)C1.[Na+] [seco-rapamycin],drop in the live cell count,[1]; 100 nM,50%
same,cells alive,[1]; 200 nM,only one-third of the control cells alive
same,EC50,"[2]; 24 hours, drug alone, read-out: EC50 (concentration required to exclude 50% of cells)",0.869 µM
same,growth of MDA-MB-231 cells,[2]; seco-rapamycin alone,attenuated growth
same,inhibition of post-acidic (PGPH) cleavages,[3]; 5 μM,~50%
same,IC50,[3]; latent human 20S proteasome,6.45 ± 0.78 µM
same,cytotoxicity,[4],did not reveal cytotoxicity
same,activation of post-basic (T-L) cleavages,[5]; 5 μM,~2 fold
same,Kd,[5]; activation of T-L peptidase,5.33 µM
same,Bmax [%]: T-L,"[5]; maximal activation effect, % above the control activity",77%
same,effect on mTOR function,[6],not to affect the mTOR function
